Common to all, as to format: cell-based
In one assay the test system is Candida. Description: In vitro MIC, NCCLS M27A, Candida species. The note with it: for MIC, C. glabrata 90030: C. glabrata strain 90030; for MIC, C. krusei 766-1: C. krusei strain 766-1; for MIC, C. krusei Q. C: C. krusei strain Q. C; for MIC, C. parapsilosis Q. C.: C. parapsilosis strain Q. C.; for MIC, Candida albicans 1.549: Candida albicans strain 1.549; for MIC, Candida albicans A 26: Candida albicans strain A 26; for MIC, Candida albicans Y-01-19: Candida albicans strain Y-01-19. The arrangement: MIC, Candida albicans 1.549 / MIC, Candida albicans Y-01-19 / MIC, C. krusei 766-1 / MIC, C. krusei Q. C / MIC, Candida tropicalis ATCC / MIC, C. glabrata 90030: unit not given beside the values; MIC, Candida albicans A 26 / MIC, C. parapsilosis Q. C.: unit not given here.

For another assay, the system named is Histoplasma capsulatum.
Another assay concerns A. fumigatus s 1008. Description: In vitro MIC, NCCLS M38P broth method (RPMI 1640/MOPS pH7), Aspergillus fumigatus. The note with it: A. fumigatus strain 1008.
Another assay deals with Cryptococcus neoformans. Description: In vitro MIC, NCCLS M27A, Cryptococcus neoformans. On the set-up: MIC, C. neoformans I: unit not given beside the values; MIC, C. neoformans M 106: unit not given here. The following applies: for MIC, C. neoformans I: C. neoformans strain I; for MIC, C. neoformans M 106: C. neoformans strain M 106.

In brackets after ≈: the same amount, converted by molar mass.

On to `C[C@@H](n1ncn(-c2ccc(N3CCN(c4cccc(C(F)(F)F)c4)CC3)cc2)c1=O)[C@@](O)(Cn1cncn1)c1ccc(F)cc1F` [Compound 10, 2-{[1R2S/1S2R]-2-(2,4-Difluorophenyl)-2-hydroxy-1-methyl-3-(1H-1,2,4-triazol-1-yl)propyl}-4-{4-[4-(3-trifluoromethylphenyl)-1-piperazinyl]phenyl}-3-(2H,4H)-1,2,4-triazolone], for which, in the assay with Candida, the “MIC, C. glabrata 90030” value was 0.50; the “MIC, C. krusei 766-1” value is given as over 16; the “MIC, C. krusei Q. C” value came out at 1.00; the “MIC, C. parapsilosis Q. C.” value is under 0.03. In addition, in the assay on Candida, the “MIC, Candida albicans 1.549” value is recorded as 0.50; the “MIC, Candida albicans A 26” value was under 0.03; the “MIC, Candida albicans Y-01-19” value came to 1.00; the “MIC, Candida tropicalis ATCC” value is under 0.03. In the assay with Histoplasma capsulatum, the MIC, H. capsulatum was 0.06 µg/mL (≈ 0.0937 µM). The “MIC, A. fumigatus 1008” value in the assay on A. fumigatus s 1008 is over 16. Also, in the assay with Cryptococcus neoformans, the “MIC, C. neoformans I” value amounted to 0.06 and the “MIC, C. neoformans M 106” value is reported as under 0.03.

As to `C[C@@H](n1ncn(-c2ccc(N3CCN(c4ccc(F)cc4)CC3)cc2)c1=O)[C@](O)(Cn1cncn1)c1ccc(F)cc1F` [Compound 11, 2-{[1R2R/1S2S]-2-(2,4-Difluorophenyl)-2-hydroxy-1-methyl-3-(1H-1,2,4-triazol-1-yl)propyl}-4-{4-[4-(4-fluorophenyl)-1-piperazinyl]phenyl}-3-(2H,4H)-1,2,4-triazolone], in the assay on Candida, the “MIC, C. glabrata 90030” value was determined as 0.25; the “MIC, C. krusei 766-1” value is recorded as 0.25; the “MIC, C. krusei Q. C” value turned out to be 0.12; the “MIC, C. parapsilosis Q. C.” value is given as under 0.03. In addition, in the assay on Candida, the “MIC, Candida albicans 1.549” value worked out at 0.06; the “MIC, Candida albicans A 26” value is under 0.03; the “MIC, Candida albicans Y-01-19” value is reported as 0.12; the “MIC, Candida tropicalis ATCC” value is under 0.03. This molecule also gave an MIC, H. capsulatum against Histoplasma capsulatum of under 0.03 µg/mL. Moreover, the “MIC, A. fumigatus 1008” value against A. fumigatus s 1008 turned out to be 0.25. Besides, in the assay with Cryptococcus neoformans, the “MIC, C. neoformans I” value is on record as under 0.03 and the “MIC, C. neoformans M 106” value is recorded as under 0.03.

As for `C[C@@H](n1ncn(-c2ccc(N3CCN(c4ccc(F)cc4)CC3)cc2)c1=O)[C@@](O)(Cn1cncn1)c1ccc(F)cc1F` [Compound 12, 2-{[1R2S/1S2R]-2-(2,4-Difluorophenyl)-2-hydroxy-1-methyl-3-(1H-1,2,4-triazol-1-yl)propyl}-4-{4-[4-(4-fluorophenyl)-1-piperazinyl]phenyl}-3-(2H,4H)-1,2,4-triazolone], in the assay with Candida, the “MIC, C. glabrata 90030” value is listed as 4.00; the “MIC, C. krusei 766-1” value is over 16; the “MIC, C. krusei Q. C” value is on record as 8.00; the “MIC, C. parapsilosis Q. C.” value is 0.06. In addition, in the assay with Candida, the “MIC, Candida albicans 1.549” value is recorded as 4.00; the “MIC, Candida albicans A 26” value is listed as under 0.03; the “MIC, Candida albicans Y-01-19” value was 8.00; the “MIC, Candida tropicalis ATCC” value was under 0.03. Further, in the assay with Histoplasma capsulatum, the MIC, H. capsulatum was under 0.03 µg/mL. Further, in the assay with A. fumigatus s 1008, the “MIC, A. fumigatus 1008” value is given as over 16. In addition, in the assay on Cryptococcus neoformans, the “MIC, C. neoformans I” value is listed as 0.12 and the “MIC, C. neoformans M 106” value worked out at 0.25.

For `COc1ccc(N2CCN(c3ccc(-n4cnn([C@H](C)[C@](O)(Cn5cncn5)c5ccc(F)cc5F)c4=O)cc3)CC2)cc1` [Compound 13, 2-{[1R2R/1S2S]-2-(2,4-Difluorophenyl)-2-hydroxy-1-methyl-3-(1H-1,2,4-triazol-1-yl)propyl}-4-{4-[4-(4-methoxyphenyl)-1-piperazinyl]phenyl}-3-(2H,4H)-1,2,4-triazolone], in the assay with Candida, the “MIC, C. glabrata 90030” value turned out to be 0.50; the “MIC, C. krusei 766-1” value was 0.50; the “MIC, C. krusei Q. C” value was found to be 0.12; the “MIC, C. parapsilosis Q. C.” value is on record as under 0.03. In the assay with Candida, the “MIC, Candida albicans 1.549” value is 0.12; the “MIC, Candida albicans A 26” value is given as under 0.03; the “MIC, Candida albicans Y-01-19” value is recorded as 0.25; the “MIC, Candida tropicalis ATCC” value is listed as under 0.03. In the assay with Histoplasma capsulatum, this molecule gave an MIC, H. capsulatum of 0.06 µg/mL (≈ 0.0996 µM). Further, the “MIC, A. fumigatus 1008” value against A. fumigatus s 1008 was 0.25. Moreover, in the assay on Cryptococcus neoformans, the “MIC, C. neoformans I” value is reported as under 0.03 and the “MIC, C. neoformans M 106” value was under 0.03.

For `COc1ccc(N2CCN(c3ccc(-n4cnn([C@H](C)[C@@](O)(Cn5cncn5)c5ccc(F)cc5F)c4=O)cc3)CC2)cc1` [Compound 14, 2-{[1R2S/1S2R]-2-(2,4-Difluorophenyl)-2-hydroxy-1-methyl-3-(1H-1,2,4-triazol-1-yl)propyl}-4-{4-[4-(4-methoxyphenyl)-1-piperazinyl]phenyl}-3-(2H,4H)-1,2,4-triazolone], in the assay on Candida, the “MIC, C. glabrata 90030” value worked out at 2.00; the “MIC, C. krusei 766-1” value is over 16; the “MIC, C. krusei Q. C” value was 16.0; the “MIC, C. parapsilosis Q. C.” value stood at 0.06. In the assay with Candida, the “MIC, Candida albicans 1.549” value is recorded as 2.00; the “MIC, Candida albicans A 26” value is given as under 0.03; the “MIC, Candida albicans Y-01-19” value amounted to 2.00; the “MIC, Candida tropicalis ATCC” value is under 0.03. This molecule had an MIC, H. capsulatum against Histoplasma capsulatum of 0.12 µg/mL (≈ 0.199 µM). Further, the “MIC, A. fumigatus 1008” value in the assay on A. fumigatus s 1008 was over 16. For the same molecule, in the assay with Cryptococcus neoformans, the “MIC, C. neoformans I” value is recorded as 0.50 and the “MIC, C. neoformans M 106” value is recorded as under 0.03.

As for `C[C@@H](n1ncn(-c2ccc(N3CCN(c4ccc(F)c(Cl)c4)CC3)cc2)c1=O)[C@](O)(Cn1cncn1)c1ccc(F)cc1F` [Compound 15, 2-{[1R2R/1S2S]-2-(2,4-Difluorophenyl)-2-hydroxy-1-methyl-3-(1H-1,2,4-triazol-1-yl)propyl}-4-{4-[4-(3-chloro-4-fluorophenyl)-1-piperazinyl]phenyl}-3-(2H,4H)-1,2,4-triazolone], in the assay with Candida, the “MIC, C. glabrata 90030” value is on record as 0.50; the “MIC, C. krusei 766-1” value is reported as 0.50; the “MIC, C. krusei Q. C” value was 0.25; the “MIC, C. parapsilosis Q. C.” value is under 0.03. Besides, in the assay with Candida, the “MIC, Candida albicans 1.549” value is on record as 1.00; the “MIC, Candida albicans A 26” value is on record as under 0.03; the “MIC, Candida albicans Y-01-19” value is given as 0.25; the “MIC, Candida tropicalis ATCC” value is under 0.03. Further, the MIC, H. capsulatum with Histoplasma capsulatum was 0.12 µg/mL (≈ 0.192 µM). Further, the “MIC, A. fumigatus 1008” value against A. fumigatus s 1008 is reported as 0.50. In the assay with Cryptococcus neoformans, the “MIC, C. neoformans I” value was under 0.03 and the “MIC, C. neoformans M 106” value is reported as under 0.03.

On to `C[C@@H](n1ncn(-c2ccc(N3CCN(c4ccc(F)c(Cl)c4)CC3)cc2)c1=O)[C@@](O)(Cn1cncn1)c1ccc(F)cc1F` [Compound 16, 2-{[1R2S/1S2R]-2-(2,4-Difluorophenyl)-2-hydroxy-1-methyl-3-(1H-1,2,4-triazol-1-yl)propyl}-4-{4-[4-(3-chloro-4-fluorophenyl)-1-piperazinyl]phenyl}-3-(2H,4H)-1,2,4-triazolone], for which, in the assay on Candida, the “MIC, C. glabrata 90030” value was 0.50; the “MIC, C. krusei 766-1” value is on record as over 16; the “MIC, C. krusei Q. C” value is listed as 1.00; the “MIC, C. parapsilosis Q. C.” value was 0.06. In the assay with Candida, the “MIC, Candida albicans 1.549” value turned out to be 4.00; the “MIC, Candida albicans A 26” value is under 0.03; the “MIC, Candida albicans Y-01-19” value was found to be 1.00; the “MIC, Candida tropicalis ATCC” value is reported as under 0.03. The MIC, H. capsulatum in the assay on Histoplasma capsulatum stood at 0.5 µg/mL (≈ 0.8 µM). In addition, the “MIC, A. fumigatus 1008” value in the assay with A. fumigatus s 1008 was over 16. In the assay on Cryptococcus neoformans, the “MIC, C. neoformans I” value stood at 0.12 and the “MIC, C. neoformans M 106” value was 0.12.

For the molecule `Cc1ccc(N2CCN(c3ccc(-n4cnn([C@H](C)[C@](O)(Cn5cncn5)c5ccc(F)cc5F)c4=O)cc3)CC2)cc1Cl` [Compound 17, 2-{[1R2R/1S2S]-2-(2,4-Difluorophenyl)-2-hydroxy-1-methyl-3-(1H-1,2,4-triazol-1-yl)propyl}-4-{4-[4-(3-chloro-4-methylphenyl)-1-piperazinyl]phenyl}-3-(2H,4H)-1,2,4-triazolone], in the assay on Candida, the “MIC, C. glabrata 90030” value is recorded as 0.50; the “MIC, C. krusei 766-1” value is 0.50; the “MIC, C. krusei Q. C” value was 0.50; the “MIC, C. parapsilosis Q. C.” value was under 0.03. For the same molecule, in the assay on Candida, the “MIC, Candida albicans 1.549” value is given as 0.25; the “MIC, Candida albicans A 26” value is given as under 0.03; the “MIC, Candida albicans Y-01-19” value was 0.25; the “MIC, Candida tropicalis ATCC” value is under 0.03. In the assay with Histoplasma capsulatum, this molecule had an MIC, H. capsulatum of 0.25 µg/mL (≈ 0.403 µM). In the assay with A. fumigatus s 1008, the “MIC, A. fumigatus 1008” value is 0.25. In the assay with Cryptococcus neoformans, the “MIC, C. neoformans I” value was under 0.03 and the “MIC, C. neoformans M 106” value is listed as under 0.03.

With `Cc1ccc(N2CCN(c3ccc(-n4cnn([C@H](C)[C@@](O)(Cn5cncn5)c5ccc(F)cc5F)c4=O)cc3)CC2)cc1Cl` [Compound 18, 2-{[1R2S/1S2R]-2-(2,4-Difluorophenyl)-2-hydroxy-1-methyl-3-(1H-1,2,4-triazol-1-yl)propyl}-4-{4-[4-(3-chloro-4-methylphenyl)-1-piperazinyl]phenyl}-3-(2H,4H)-1,2,4-triazolone], in the assay with Candida, the “MIC, C. glabrata 90030” value is on record as 1.00; the “MIC, C. krusei 766-1” value was over 16; the “MIC, C. krusei Q. C” value is recorded as 2.00; the “MIC, C. parapsilosis Q. C.” value is 0.25. For the same molecule, in the assay with Candida, the “MIC, Candida albicans 1.549” value turned out to be 2.00; the “MIC, Candida albicans A 26” value is under 0.03; the “MIC, Candida albicans Y-01-19” value amounted to 1.00; the “MIC, Candida tropicalis ATCC” value was under 0.03. The MIC, H. capsulatum against Histoplasma capsulatum is 0.25 µg/mL (≈ 0.403 µM). Further, in the assay with A. fumigatus s 1008, the “MIC, A. fumigatus 1008” value is recorded as over 16. In addition, in the assay on Cryptococcus neoformans, the “MIC, C. neoformans I” value was 0.12 and the “MIC, C. neoformans M 106” value was determined as 0.25.

Source of the values: patent US6670363B1, “Azole compounds as therapeutic agents for fungal infections” (Ranbaxy Laboratories Limited, priority 2000, dated 2003).
